# From publication PMC4269221 (Cell reports, 2014)
# Entries after “also recorded” stand apart in the source; their conditions may differ.
# What was measured:
# [1] = test system: p53-Mdm2 complexes in cell lysates; assay: BiLC assay using cell lysates, p53-Mdm2; type: biochemical; details: absence of FBS, RT 10 minutes, luminescence at 26 °C
# [2] = test system: p53-Mdm4 complexes in Saos-2 p53-Mdm4 ReBiL cells; assay: Real-time BiLC; type: cell-based; details: 37 °C; for disruption of preformed p53-Mdm4 complexes in living cells: pre-induced cells, doxycycline withdrawal, 10% FBS media
# [3] = test system: p53-Mdm4 complexes in cell lysates; assay: BiLC assay using cell lysates, p53-Mdm4; type: biochemical; details: absence of FBS, RT 10 minutes, luminescence at 26 °C
# [4] = target: p53-Mdm2 complexes in Saos-2 p53-Mdm2 ReBiL cells (Homo sapiens, UniProt Q00987); assay: Real-time BiLC; type: cell-based; details: pre-induced cells, doxycycline withdrawal, 10% FBS media, 37 °C
# Chain of p53-Mdm2 complexes in Saos-2 p53-Mdm2 ReBiL cells (Q00987 whole entry, one chain of several): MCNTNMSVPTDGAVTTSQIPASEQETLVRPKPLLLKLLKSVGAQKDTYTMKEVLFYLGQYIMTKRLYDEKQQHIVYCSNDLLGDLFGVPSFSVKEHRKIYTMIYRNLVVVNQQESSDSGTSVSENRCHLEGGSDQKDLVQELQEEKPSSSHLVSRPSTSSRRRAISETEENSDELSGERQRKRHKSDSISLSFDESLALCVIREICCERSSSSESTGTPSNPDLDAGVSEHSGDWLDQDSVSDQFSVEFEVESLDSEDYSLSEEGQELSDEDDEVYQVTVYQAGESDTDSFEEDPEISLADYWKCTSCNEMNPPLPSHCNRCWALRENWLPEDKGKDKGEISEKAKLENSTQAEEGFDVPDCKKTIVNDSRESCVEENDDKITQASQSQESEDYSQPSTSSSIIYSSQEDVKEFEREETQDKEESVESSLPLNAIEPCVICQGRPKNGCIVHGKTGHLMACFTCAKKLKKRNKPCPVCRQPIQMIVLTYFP
# [5] = test system: Mdm2-Mdm4 N-terminal BiLC pair (U2OS Mdm4_111 - Mdm2_108 ReBiL cells); assay: ReBiL assay of the Mdm2-Mdm4 N-terminal BiLC pair in living cells; type: cell-based; details: 500 ng/ml doxycycline, 24 hours, 37 °C
# Saos-2 cells = assay: Lactate dehydrogenase; type: cell-based; details: absence of serum, 25 μM and 10 μM, 6 hr
# Saos-2 cells (p53-null) = assay: CellTiter Glo cell viability assay, Saos-2; details: Saos-2 ReBiL cells, 6 hr, CellTiter Glo (Figure 5)
Compound,p53-Mdm2 disruption in lysate BiLC assay [1],"p53-Mdm4 BiLC signal (newly synthesized complexes) ([2]; doxycycline 500 ng/ml and compound added at Time = 0, 24-48 hr)",p53-Mdm4 disruption in lysate BiLC assay [3],disruption of preformed p53-Mdm2 complexes in living cells [4],disruption of preformed p53-Mdm4 complexes in living cells [2],Mdm2-Mdm4 N-terminal domain BiLC signal (association) [5],LDH leakage / cell membrane damage (Saos-2 cells),p53-independent cytotoxicity at high concentrations (Saos-2 cells (p53-null))
CCOc1cc(/C=C2/C(=O)N(c3ccccc3)N=C2C)cc(Cl)c1OCC(=O)OC [SJ-172550],no activity,No decrease; also recorded: lacks p53-Mdm4 disruption activity,no activity,,,,,
RO-5963,no activity,,no activity,limited ability to disrupt; also recorded: moderately reduces,no effect,increased the BiLC signal; also recorded: enhances,,
COc1ccc(C2=N[C@@H](c3ccc(Cl)cc3)[C@@H](c3ccc(Cl)cc3)N2C(=O)N2CCNC(=O)C2)c(OC(C)C)c1 [Nutlin-3a],efficiently disrupted,,,,not affected; also recorded: has no effect,did not promote,did not induce membrane leakage,induce p53-independent cytotoxicity
